# Data as given in patent US20070014786A1, “Methods for treating taxol-induced gut disorder” (RINAT NEUROSCIENCE CORP., priority 2003, published 2007).
# Legend:
# [1] = molecular target: T1, low affinity receptor (LNGFR), p75NTR or p75 (Homo sapiens, UniProt P08138); conditions: according to current knowledge (background); cited from earlier work
# T1 sequence (P08138 29-427): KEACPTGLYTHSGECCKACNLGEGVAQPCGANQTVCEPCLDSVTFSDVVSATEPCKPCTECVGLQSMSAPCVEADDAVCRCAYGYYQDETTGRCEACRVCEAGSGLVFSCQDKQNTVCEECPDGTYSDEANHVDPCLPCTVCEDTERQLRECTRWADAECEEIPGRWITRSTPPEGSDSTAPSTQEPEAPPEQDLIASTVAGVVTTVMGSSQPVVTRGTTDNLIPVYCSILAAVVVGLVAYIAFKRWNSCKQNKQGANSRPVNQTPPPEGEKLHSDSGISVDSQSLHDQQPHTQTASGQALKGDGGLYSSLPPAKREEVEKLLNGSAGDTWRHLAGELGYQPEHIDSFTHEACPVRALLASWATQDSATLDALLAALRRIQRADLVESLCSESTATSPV
# [2] = system: Female Swiss-Webster mice; assay: Taxol-induced gut disorder mouse model: intestinal hypertrophy (weight and length of GI tract) and autopsy; type: in vivo
# Method: Intestinal hypertrophy was assessed by measuring weight and length of the gastrointestinal (“GI”) tract as follows: animals were sacrificed, and the weight and length of the GI tract was assessed as follows: the entire GI tract was removed, emptied of any contents, and weighed. The GI tract was then separated into stomach, small intestine, and caecum plus large intestine and those parts were individually weighed.
# Selected animals were sacrificed and subjected to autopsy. […] Ascites production was not observed in control animals.
# Intestinal hypertrophy was assessed as described above. […] Ascites production was not observed in control animals.
# [3] = system: Female Swiss-Webster mice; assay: Taxol-induced gut disorder mouse model: abdominal distension score; conditions: second experiment; taxol 300, 375 or 450 mg/m^2; scored weekly
# Method: Female Swiss-Webster mice, eight weeks old were treated with vehicle alone (control), taxol alone, or agonist anti-trkC mouse monoclonal antibody 2256 (PCT WO 01/98361; Urfer et al. J. Biol. Chem. (1998) 273:5829-5840)) and taxol. Taxol was obtained from Calbiochem and prepared as a 20 mg/kg solution in Cremophor/ethanol (50:50 w/w), which was diluted with saline (1 part Cremophor/ethanol to four parts saline vol:vol), filtered through a 0.1 micron filter and administered intraperitoneally (“IP”) within 30 minutes of preparation. All treatment animals received one round of three taxol or control (vehicle) treatments every other day for three doses, i.e., day 1, 3 and 5 of the protocol. […] Taxol dose was determined on a mg/m^2 basis, using the formula that body surface area (in square cm) equals 10.5 times the weight in grams to the two-thirds power. […]
# Taxol-induced gut disorder was assessed by measuring degree and quality of abdominal distension and intestinal hypertrophy after lifting the individual mouse by the tail. Degree and quality of taxol-induced abdominal distension was scored by a blinded observer using the following five point scale: • 0-no noticeable abdominal bulge • 1-slight bulge • 2-distinct bulge (may be full stomach) • 3-fat mouse • 4-definite lumpy abdomen • 5-swollen abdomen […]
# [4] = taxol 450 mg/m^2 (four weeks) or 375 mg/m^2 (six weeks)
gut distension (FIG. 2) [3],Compound,Kd [1] [nM],"length of the GI tract (FIG. 8) [2, 4]","raw weight of the caecum plus large intestine (FIG. 9) [2, 4]","weight of the caecum plus large intestine (FIG. 6) ([2]; taxol 450 mg/m^2, four weeks)","weight of the small intestine (FIG. 5) ([2]; taxol 450 mg/m^2, four weeks)","weight of the GI tract from stomach through colon (FIG. 4) ([2]; taxol 450 mg/m^2, sacrificed at four weeks)",intestinal obstruction(s) and/or stool softening or diarrhea ([2]; taxol-treated animals at autopsy),"ascites in the peritoneum at autopsy ([2]; taxol-treated animals with abdominal distension, not observed in control animals)"
–,neurotrophin-3 [NT-3],2,–,–,–,–,–,–,–
–,nerve growth factor [NGF],2,–,–,–,–,–,–,–
resulted in gut distension,"CC(=O)O[C@H]1C(=O)[C@@]2(C)[C@H]([C@H](OC(=O)c3ccccc3)[C@]3(O)C[C@H](OC(=O)[C@H](O)[C@@H](NC(=O)c4ccccc4)c4ccccc4)C(C)=C1C3(C)C)[C@]1(OC(C)=O)CO[C@@H]1C[C@@H]2O [taxol, paclitaxel]",–,significant decrease,significant increase,significant increase,significant increase,significant increase,exhibited intestinal obstruction(s) and/or stool softening or diarrhea,Production of ascites in the peritoneum was noted
